In BindingDB's records for doi:10.1021/jm400568p (University of Manchester, 2013) one finds IC50 data, which are given here for one compound.

Where only a bound is given, the exact number is not on record here.

This experiment deals with DNA-(apurinic or apyrimidinic site) endonuclease (Homo sapiens, UniProt P27695). Put plainly: Inhibition of APE-1 (unknown origin) using double-stranded AP-site containing DNA as substrate after 30 mins by fluorescence assay.

The IC50 is the point on the concentration scale where inhibition reaches its midpoint. The low end stands for greater potency in that assay, the high end for weaker potency in that assay.

Sequence of DNA-(apurinic or apyrimidinic site) endonuclease (P27695 whole entry): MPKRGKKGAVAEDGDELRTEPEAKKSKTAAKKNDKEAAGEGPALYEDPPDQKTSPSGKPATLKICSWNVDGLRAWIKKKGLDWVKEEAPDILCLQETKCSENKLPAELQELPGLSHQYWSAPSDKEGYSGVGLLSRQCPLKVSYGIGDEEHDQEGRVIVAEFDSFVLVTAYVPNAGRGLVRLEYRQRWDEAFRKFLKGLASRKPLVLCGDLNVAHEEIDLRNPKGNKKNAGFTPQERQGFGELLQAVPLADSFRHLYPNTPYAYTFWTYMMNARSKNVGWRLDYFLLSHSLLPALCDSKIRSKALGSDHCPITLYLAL

Compound `Cn1nc(-c2ccccc2)c(O)c2c(=O)[nH]c(=N)nc1-2` gave an IC50 of over 200 µM.
